In this experiment the target is alpha-L-fucosidase (Bos taurus). As to the kind of experiment: Inhibitory activity against alpha-Fucosidase in bovine kidney.

Experimental findings from BindingDB's records for doi:10.1016/s0960-894x(03)00742-x (Keio University, 2003) are described below.

Broadly, the IC50 is the concentration needed to halve the response being measured. `C[C@@H]1CC(NCCc2ccccc2)[C@@H](O)[C@@H](O)[C@@H]1O` (some centres not stated): the IC50 amounted to 7.5 µM. This lies in the single-digit micromolar range.

In turn, `CCCCCCCCCCCCN[C@H]1CC(C)[C@@H](O)C(O)[C@@H]1O` (stereo partly drawn) [(1R,3R,4S)-4-Dodecylamino-6-methyl-cyclohexane-1,2,3-triol] showed a half-maximal inhibitory concentration (IC50) of 1.2 µM.
